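GI50 is the concentration that inhibits growth by half. TGI: total growth inhibition.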
Experiments:
Test in all cases: NCI anticancer screen, dose series, 384-well format
[1] = test system: NCI-H226 lung
[2] = test system: SK-MEL-28 melanoma
[3] = test system: MDA-MB-435 melanoma
[4] = test system: RXF 393 renal
[5] = test system: LOX IMVI melanoma
[6] = test system: SK-MEL-5 melanoma
[7] = test system: NCI-H322M lung
[8] = test system: MDA-MB-231 breast
[9] = test system: 786-0 renal
[10] = test system: MALME-3M melanoma
[11] = test system: SN12C renal
[12] = test system: NCI-H522 lung
[13] = test system: UACC-62 melanoma
[14] = test system: HCT-15 colon
[15] = test system: NCI/ADR-RES ovarian
[16] = test system: MCF7 breast
[17] = test system: OVCAR-4 ovarian
[18] = test system: KM12 colon
[19] = test system: M14 melanoma
[20] = test system: RPMI-8226 leukemia
[21] = test system: HL-60(TB) leukemia
[22] = test system: SR leukemia
[23] = test system: COLO 205 colon
[24] = test system: SF-295 CNS
[25] = test system: UACC-257 melanoma
[26] = test system: SK-OV-3 ovarian
[27] = test system: SF-539 CNS
[28] = test system: OVCAR-3 ovarian
[29] = test system: SW-620 colon
[30] = test system: A549 NSCLC
[31] = test system: MDA-MB-468 breast
[32] = test system: DU-145 prostate
[33] = test system: ACHN renal
[34] = test system: HOP-62 NSCLC
[35] = test system: IGROV1 ovarian
[36] = test system: OVCAR-8 ovarian
[37] = test system: MOLT-4 leukemia
[38] = test system: OVCAR-5 ovarian
[39] = test system: HT29 colon
[40] = test system: UO-31 renal
[41] = test system: SNB-19 CNS
[42] = test system: NCI-H460 NSCLC
[43] = test system: CAKI-1 renal
[44] = test system: HOP-92 NSCLC
[45] = test system: BT-549 breast
[46] = test system: NCI-H23 lung
[47] = test system: HCT-116 colon
[48] = test system: SK-MEL-2 melanoma
[49] = test system: SF-268 CNS
[50] = test system: A498 renal
[51] = test system: TK-10 renal
[52] = test system: U251 glioblastoma
[53] = test system: PC-3 prostate
[54] = test system: CCRF-CEM leukemia
[55] = test system: T-47D breast
[56] = test system: HCC-2998 colon

`Cc1ncc(NC(=O)c2ccc(CN3CCN(C)CC3)c(C(F)(F)F)c2)cc1Nc1nccc(-c2cccnc2)n1` gave a GI50 [1] of 12.4 µM, a TGI [1] of 25 µM and a GI50 [2] of 1.78 µM. It also gave a TGI [2] of 14.9 µM, a GI50 [3] of 4.56 µM and a TGI [3] of 19.2 µM. For the same compound, the GI50 [4] was 1.66 µM, the TGI [4] was 3.59 µM and the GI50 [5] was 1.95 µM. For the same compound, the TGI [5] was 3.37 µM, the GI50 [6] was 1.44 µM and the TGI [6] was 16.4 µM. It also gave a GI50 [7] of 10.9 µM, a TGI [7] of 22.9 µM and a GI50 [8] of 1.55 µM. It also gave a TGI [8] of 2.98 µM, a GI50 [9] of 1.51 µM and a TGI [9] of 2.89 µM. It also gave a GI50 [10] of 0.289 µM, a TGI [10] of 1.46 µM and a GI50 [11] of 17.4 µM. It also gave a TGI [11] of 31.2 µM, a GI50 [12] of 3.05 µM and a TGI [12] of 17.8 µM. The GI50 [13] was 1.35 µM, the TGI [13] was 13.8 µM and the GI50 [14] was 1.82 µM. For the same compound, the TGI [14] was 3.6 µM, the GI50 [15] was 10.6 µM and the TGI [15] was 22.4 µM. The GI50 [16] was 1.43 µM, the TGI [16] was 2.79 µM and the GI50 [17] was 2.63 µM. The TGI [17] was 14.1 µM, the GI50 [18] was 1.57 µM and the TGI [18] was 3.11 µM. For the same compound, the GI50 [19] was 0.798 µM, the TGI [19] was 12.3 µM and the GI50 [20] was 0.745 µM. For the same compound, the TGI [20] was 2 µM, the GI50 [21] was 0.956 µM and the TGI [21] was 2.12 µM. It also gave a GI50 [22] of 1.66 µM, a TGI [22] of 3.02 µM and a GI50 [23] of 1.27 µM. For the same compound, the TGI [23] was 14.5 µM, the GI50 [24] was 19.5 µM and the TGI [24] was 33.7 µM. The GI50 [25] was 1.06 µM, the TGI [25] was 2.24 µM and the GI50 [26] was 1.94 µM. It also gave a TGI [26] of 3.89 µM, a GI50 [27] of 1.32 µM and a TGI [27] of 2.6 µM. It also gave a GI50 [28] of 1.74 µM, a TGI [28] of 3.31 µM and a GI50 [29] of 1.84 µM. It also gave a TGI [29] of 3.29 µM, a GI50 [30] of 2.54 µM and a TGI [30] of 8.6 µM. For the same compound, the GI50 [31] was 10.8 µM, the TGI [31] was 22.8 µM and the GI50 [32] was 15.4 µM. It also gave a TGI [32] of 28.8 µM, a GI50 [33] of 12.6 µM and a TGI [33] of 25.2 µM. It also gave a GI50 [34] of 13.8 µM, a TGI [34] of 26.8 µM and a GI50 [35] of 13.2 µM. For the same compound, the TGI [35] was 26 µM, the GI50 [36] was 11.3 µM and the TGI [36] was 23.5 µM. It also gave a GI50 [37] of 1.28 µM, a TGI [37] of 2.54 µM and a GI50 [38] of 14.4 µM. The TGI [38] was 27.6 µM, the GI50 [39] was 1.04 µM and the TGI [39] was 2.22 µM. For the same compound, the GI50 [40] was 11.4 µM, the TGI [40] was 23.5 µM and the GI50 [41] was 15.7 µM. It also gave a TGI [41] of 29.2 µM, a GI50 [42] of 1.65 µM and a TGI [42] of 3.26 µM. For the same compound, the GI50 [43] was 7.3 µM, the TGI [43] was 19.4 µM and the GI50 [44] was 6.68 µM. For the same compound, the TGI [44] was 19.4 µM, the GI50 [45] was 2.17 µM and the TGI [45] was 3.69 µM. For the same compound, the GI50 [46] was 13.7 µM, the TGI [46] was 26.7 µM and the GI50 [47] was 1.18 µM. It also gave a TGI [47] of 2.43 µM, a GI50 [48] of 2.46 µM and a TGI [48] of 8.05 µM. It also gave a GI50 [49] of 10.4 µM, a TGI [49] of 22.2 µM and a GI50 [50] of 1.89 µM. It also gave a TGI [50] of 3.55 µM, a GI50 [51] of 12.9 µM and a TGI [51] of 25.5 µM. The GI50 [52] was 1.82 µM, the TGI [52] was 3.31 µM and the GI50 [53] was 13.6 µM. The TGI [53] was 26.6 µM, the GI50 [54] was 1.61 µM and the TGI [54] was 2.96 µM. The GI50 [55] was 12.1 µM, the TGI [55] was 24.6 µM and the GI50 [56] was 3.72 µM. The TGI [56] was 17.6 µM.
